Results as given in paper PMC5983544, “Muscarinic M5 receptors modulate ethanol seeking in rats” (Neuropsychopharmacology, 2018).

How the values were obtained:
[1] = system: ethanol-preferring (iP) rats; assay: Operant ethanol self-administration, oral dosing; assay type: in vivo, rat
From the text: (§1) Male iP rats (n = 14) were trained to self-administer 10% (v/v) ethanol via lever presses under FR3 operant conditions for approximately 12 weeks, in the presence of a 1-s light conditioned stimulus (CS+) occurring when the ethanol solution was delivered and an olfactory cue (S+ cue; one drop of vanilla essence, placed directly below the ethanol-paired (active) lever), as previously described, followed by surgery and testing. […] Rats were then given 7 days of ethanol self-administration before receiving the alternate treatment in a counterbalanced manner. For full details refer to Supplementary material.

[2] = system: ethanol-preferring (iP) rats; assay: Ethanol self-administration after bilateral microinjection into dorsolateral (DL) striatum; assay type: in vivo, rat; settings: intra-DL striatum, 105 pmol/hemisphere
From the text: as §1
(§2) Microinjections were performed as previously described; for full details see Supplementary material.

rat M5 mAChR = target: T1, rat M5 mAChR (Rattus norvegicus, UniProt P08911); assay: [3H]NMS equilibrium binding in whole CHO-rM5 cells (interaction with ACh); settings: whole-cell [3H]NMS binding, read-out: binding affinity pKB (converted)
T1 sequence (P08911 1-531): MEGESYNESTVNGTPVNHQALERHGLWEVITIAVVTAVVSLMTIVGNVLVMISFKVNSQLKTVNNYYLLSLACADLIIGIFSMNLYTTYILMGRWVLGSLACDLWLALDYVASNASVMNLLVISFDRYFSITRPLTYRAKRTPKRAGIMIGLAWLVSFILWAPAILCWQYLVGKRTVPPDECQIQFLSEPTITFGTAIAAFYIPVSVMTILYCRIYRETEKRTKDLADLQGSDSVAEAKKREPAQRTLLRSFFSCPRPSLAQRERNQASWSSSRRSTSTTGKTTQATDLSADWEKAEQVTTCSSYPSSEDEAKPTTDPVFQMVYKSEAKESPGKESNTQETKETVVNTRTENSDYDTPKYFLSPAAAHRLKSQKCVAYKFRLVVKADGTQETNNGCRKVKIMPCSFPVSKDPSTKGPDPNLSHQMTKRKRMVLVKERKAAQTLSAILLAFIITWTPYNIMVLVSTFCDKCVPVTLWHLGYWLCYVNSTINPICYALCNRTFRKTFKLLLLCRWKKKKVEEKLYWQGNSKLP
Description: (§3) Rat mAChR subtypes (rM1–rM5; Origene) and human cannabinoid 1 receptor (hCB1; ref. [24]) constructs were isogenically integrated into FlpIn CHO cells (Invitrogen) and cells were selected in the presence of […] hygromycin B at 37 °C, 5% CO2, as previously described for the human M1 mAChR [25]. All cells were sub-cultured and seeded as previously described for the CHO-hM5 cells.
(§4) [^3H]NMS equilibrium binding assays in CHO-rM1 to CHO-rM5 cells were performed as previously described for CHO-hM5 cells. For [^35S]GTPγS binding, CHO-rM2 and CHO-rM4 cell membranes were prepared as described in Supplementary information. Membrane [^35S]GTPγS binding was performed as described in ref [26]., except GDP and [^35S]GTPγS concentrations were 1 μM and 0.3 nM, respectively. [^3H](+)-pentazocine binding was performed as described in ref. [27].

rat M4 mAChR = target: T2, rat M4 mAChR (Rattus norvegicus, UniProt P08485); assay: ACh-stimulated [35S]GTPγS binding in CHO-rM4 cell membranes; assay type: biochemical; settings: rM4, [35S]GTPγS binding
T2 construct: host or cells: FlpIn CHO cells (Invitrogen)
T2 sequence (P08485 1-478): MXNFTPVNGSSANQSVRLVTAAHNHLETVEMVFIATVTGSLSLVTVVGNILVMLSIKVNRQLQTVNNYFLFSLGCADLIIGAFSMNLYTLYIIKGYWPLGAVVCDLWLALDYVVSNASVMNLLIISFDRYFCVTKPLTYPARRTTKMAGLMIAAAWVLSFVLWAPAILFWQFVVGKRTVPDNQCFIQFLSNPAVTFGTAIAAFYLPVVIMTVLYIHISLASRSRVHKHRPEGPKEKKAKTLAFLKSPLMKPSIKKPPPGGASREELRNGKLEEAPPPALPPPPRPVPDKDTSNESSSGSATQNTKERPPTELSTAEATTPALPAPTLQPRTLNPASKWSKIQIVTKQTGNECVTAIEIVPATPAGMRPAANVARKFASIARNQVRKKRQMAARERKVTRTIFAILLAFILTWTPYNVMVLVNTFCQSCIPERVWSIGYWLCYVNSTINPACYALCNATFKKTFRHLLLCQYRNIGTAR
Description: as §4

[3] = system: ethanol-preferring (iP) rats; assay: Ethanol self-administration after bilateral microinjection into dorsomedial (DM) striatum; assay type: in vivo, rat; settings: intra-DM striatum, 105 pmol/hemisphere
From the text: as §1, §2
There was a main effect of lever (F(1, 15) = 59.4, P < 0.0001) but no effect of treatment (F(1, 15) = 0.22, P = 0.65) (Fig. 5b).

rat M1 mAChR = target: T3, rat M1 mAChR (Rattus norvegicus, UniProt P08482); assay: ACh-stimulated IP accumulation (IP-One) in CHO-rM1 cells; assay type: cell-based
T3 construct: host or cells: FlpIn CHO cells (Invitrogen)
T3 sequence (P08482 1-460): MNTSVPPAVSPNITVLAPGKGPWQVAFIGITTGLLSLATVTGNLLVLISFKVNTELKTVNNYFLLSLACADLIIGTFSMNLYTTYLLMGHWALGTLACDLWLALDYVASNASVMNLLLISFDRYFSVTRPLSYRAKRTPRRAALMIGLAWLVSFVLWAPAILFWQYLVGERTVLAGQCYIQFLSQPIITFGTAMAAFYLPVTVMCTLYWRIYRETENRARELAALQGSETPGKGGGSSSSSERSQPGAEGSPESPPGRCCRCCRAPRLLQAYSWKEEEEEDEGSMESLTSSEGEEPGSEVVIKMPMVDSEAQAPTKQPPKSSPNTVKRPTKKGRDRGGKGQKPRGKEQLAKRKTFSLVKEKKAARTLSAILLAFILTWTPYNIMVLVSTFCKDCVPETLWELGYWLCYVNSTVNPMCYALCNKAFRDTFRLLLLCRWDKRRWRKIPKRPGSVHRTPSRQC
Description: (§5) The IP-One assay kit (Cisbio) was used for the direct quantitative measurement of inositol phosphate (IP) accumulation in CHO-rM1, CHO-rM3 or CHO-rM5 cells, as described previously. The CHO-hCB1 pERK1/2 assays were performed as described in ref [24].

[4] = target: T4, human cannabinoid 1 receptor (hCB1) (Homo sapiens, UniProt P21554); assay: CHO-hCB1 ERK1/2 phosphorylation assay; assay type: cell-based
T4 construct: expressed in transfected cells; host or cells: FlpIn CHO cells (Invitrogen)
T4 sequence (P21554 whole entry): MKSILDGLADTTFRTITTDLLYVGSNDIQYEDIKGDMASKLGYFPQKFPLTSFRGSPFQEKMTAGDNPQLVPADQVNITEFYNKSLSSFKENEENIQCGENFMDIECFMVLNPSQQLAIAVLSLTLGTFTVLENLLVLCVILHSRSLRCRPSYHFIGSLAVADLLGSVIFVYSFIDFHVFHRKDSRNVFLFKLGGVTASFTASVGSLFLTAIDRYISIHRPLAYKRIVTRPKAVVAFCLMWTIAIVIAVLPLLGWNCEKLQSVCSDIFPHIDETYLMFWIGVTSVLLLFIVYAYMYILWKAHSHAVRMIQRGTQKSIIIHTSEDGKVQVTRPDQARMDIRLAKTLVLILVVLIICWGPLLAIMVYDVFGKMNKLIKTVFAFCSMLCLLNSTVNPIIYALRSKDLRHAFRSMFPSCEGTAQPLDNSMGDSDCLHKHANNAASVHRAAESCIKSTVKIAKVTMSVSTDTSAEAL
Description: as §3, §5
Sigma-1 data are expressed as a percentage of specific [^3H]-(+)-pentazocine binding; ERK1/2 phosphorylation data are expressed percentage of the response to 10% FBS. Data represent the mean ± S.E.M. of 5-7 independent experiments performed in duplicate or triplicate.

O=C(c1ccc(F)c(F)c1)N1CCN2C(=O)c3ccccc3[C@@]12c1ccc(Cl)cc1 [ML375, (S)-9b-(4-chlorophenyl)-1-(3,4-difluorobenzoyl)-2,3-dihydro-1H-imidazo[2,1-a]isoi ndol-5(9bH)-one]
latency to first water response vs vehicle ([1]; 30 mg/kg p.o. at 3 h, 11 h and 27 h prior to testing, P = 0.037): extends the latency | ethanol responding vs vehicle ([1]; 30 mg/kg p.o. at 27 h, 11 h and 3 h prior to test, 10% ethanol, FR3, P = 0.0015): significantly reduced ethanol responding | responding for water vs vehicle ([1]; 30 mg/kg p.o. at 27 h, 11 h and 3 h prior to test, P = 0.98): no difference | latency to first ethanol reward vs vehicle ([1]; 30 mg/kg p.o., P = 0.73): no difference | responding for ethanol vs vehicle ([2]; P = 0.011): significantly reduced responding for ethanol | responding for water vs vehicle ([2]; P > 0.99): no difference | Kb (rat M5 mAChR): 355 nM | effect on ACh potency (rat M4 mAChR): no significant effects | ethanol responding vs vehicle [3]: did not affect ethanol responding | effect on ACh potency (rat M1 mAChR): no significant effects | effect in ERK1/2 phosphorylation assays ([4]; CHO-hCB1, concentrations up to 10 μM): no apparent effect | agonist activity, ERK1/2 phosphorylation ([4]; FlpIn-CHO hCB1, agonist mode): no agonist activity | inhibition of WIN 55212-2 (1µM)-stimulated ERK 1/2 phosphorylation ([4]; FlpIn-CHO hCB1, antagonist mode): failed to inhibit
